Where two headings read alike, the source gives them in different places.
Tests used:
[1] = system: C. albicans (ATCC strain 90028); experiment: Antifungal microdilution broth assay (PrestoBlue), C. albicans; type: cell-based, Candida albicans; conditions: Candida albicans
In short: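 Inoculum of 1.5×10^3 cells/mL in RPMI-MOPS (0.165 M MOPS, pH 7.0), exposed to aurones for 24 h at 35 °C. Growth read by PrestoBlue (10% final) fluorescence at ex 560/em 590 nm.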

[2] = system: p65-EGFP / TNFα promoter mCherry reporter; experiment: Live cell imaging of RAW 264.7 dual reporter cells (p65-EGFP, TNFα promoter mCherry); type: cell-based, murine; conditions: 50 μM pre-treatment
Method: Cells were maintained at 37° C. with 5% CO2 in a humidified atmosphere during imaging. EGFP and mCherry fluorescence were imaged using FITC and Cy3 filters, respectively. Nikon Elements Software (Nikon. USA) was used for microscope control and image capture. Post-acquisition, images were analyzed using Fiji (Schindelin, Arganda-Carreras et al. 2012). Images were background subtracted and cytoplasmic:nuclear p65-EGFP and whole cell mCherry fluorescence were quantified for individual cells at each time point.

NO production = experiment: NO assay (Griess, nitrite), RAW 264.7; type: cell-based, murine; conditions: LPS-stimulated RAW264.7, 24 h
Method: Nitrite concentration in culture media of cells exposed to the indicated treatments was determined as an estimate of NO production with Griess reagent using a nitrate/nitrite colorimetric assay kit (Cayman Chemical Company, USA) according to the manufacturer's protocol.

p65 (NF-κB) = experiment: Indirect immunofluorescence for NF-κB nuclear translocation, THP-1; type: cell-based, human; conditions: pre-treatment with 50 aurone 1; THP-1, LPS 30 min
Description: Bay 11-7082 is a compound that inhibits LPS-induced activation of IKKα/β, thereby suppressing downstream IκBα phosphorylation/degradation and p65 nuclear translocation and was used as a positive control (Catalan, Fernandez-Castillejo et al. 2012). Treated cells were fixed, permeabilized, blocked, and stained with p65 (NF-κB) primary antibody, Dylight 488 conjugated secondary antibody, and Hoechst 33342 dye, sequentially. The Hoechst and DyLight fluorophores detect changes in nuclear morphology (blue fluorescence) and NF-κB distribution (green fluorescence), respectively. Nuclear Translocation Bioapplication software on the Arrayscan VTI reader was used for image acquisition and data analysis (Thermo Fisher Scientific, Waltham, Mass., USA). For each well, at least 400 cells were automatically acquired and analyzed. The translocation index was calculated by measuring the average intensity difference of NF-κB between the identified cytoplasmic region and nuclear region.

NF-κB-dependent promoter = experiment: pNF-κB-Luc luciferase assay, RAW 264.7; type: cell-based, murine; conditions: 50 μM, 1 h pre-treatment, LPS 6 h, RAW264.7
Method: Cells were lysed in 250 μl/well of luminometry lysis buffer [25 mM Tris-phosphate, 1%(w/v) BSA, 0.025%(w/v) dithiothreitol (DTT), 1% Triton X-100, 15%(v/v) glycerol, 0.1 mM EDTA, 8 mM MgCl2, 1× protease inhibitor cocktail, and 1 mM phenylmethylsulfonyl fluoride] and incubated on a shaking table at 200 rpm for 15 min. A volume of 10 μl of 25 mM ATP was added to each well, and the samples were transferred in duplicates of 100 μl to an opaque-white 96-well plate. A volume of 20 μl of 10 mM sodium pyrophosphate was added to each well prior to the addition of 100 μl of 2 mM D-luciferin. Luminescence was quantified using a SpectraMax M5 plate reader using SoftMax Pro 6.3 software (Molecular Devices, Sunnyvale, Calif., USA).

ERK, JNK, p38 = experiment: Western blot, MAPK phosphorylation, RAW 264.7; conditions: RAW264.7; LPS 15 min
Method: U0126 is a compound that inhibits MEK1/2 and was used as positive control for ERK phosphorylation inhibition (Hotokezaka, Sakai et al. 2002). Cells were lysed with radio-immunoprecipitation assay (RIPA) lysis buffer that contained a protease and phosphatase inhibitor cocktail. Cell lysates were then tested for protein concentration using a BCA protein assay and diluted with RIPA lysis buffer to normalize protein concentration in all samples. Lysates were mixed with sample loading buffer containing bromophenol blue, glycerol, SDS, and 2-mercaptoethanol. The separated proteins were then transferred onto a nitrocellulose membrane and blocked with 5% BSA in IX Tris-buffered saline with 0.1% Tween-20 for 1 h. The blots were incubated with primary antibodies at 4° C. overnight followed by incubation with HRP-conjugated secondary antibodies for 2 h at 22° C. The membranes were developed by addition of ECL substrate and images were collected with a ChemiDoc XRS+ system chemiluminescence imager (Bio-Rad, Hercules, Calif., USA). Western blot band intensity was quantified using Image Lab software (Bio-Rad, Hercules, Calif., USA). […]

| SMILES | IC50 ([1]; ATCC90028, Table 5, read-out: IC50 C. albicans) [µM] | IC50 ([1]; ATCC90028, across C. albicans, C. glabrata, and C. tropicalis, read-out: IC50 values against Candida species) [µM] | expression of mCherry (TNFα promoter reporter) [2] | nuclear translocation of p65-EGFP post-LPS [2] | production of NO (nitrite in supernatants) (NO production) | cytoplasmic-to-nuclear translocation of p65 (p65 (NF-κB)) | LPS-induced luciferase expression (pNF-κB-Luc) (NF-κB-dependent promoter) | phosphorylation of ERK, JNK, or p38 (ERK, JNK, p38) |
| --- | --- | --- | --- | --- | --- | --- | --- | --- |
| COc1ccc(/C=C2\Oc3c(ccc(O)c3O)C2=O)cc1O [Aurone 1009, (Z)-6,7-dihydroxy-2-(3-hydroxy-4-methoxybenzylidene)benzofuran-3(2H)-one] | 16 | 10 to 18 |  |  |  |  |  |  |
| O=C1/C(=C/c2ccc(CO)o2)Oc2ccccc21 [aurone 1] |  |  | smaller fold-change in the expression of mCherry | diminished | significantly reduced | capable of blocking cytoplasmic-to-nuclear translocation of p65 | significantly inhibit LPS-induced luciferase expression | no statistically significant effect |

Reference: patent publication US20200399238A1, “THERAPEUTIC AURONES” (MIDDLE TENNESSEE STATE UNIVERSITY, priority 2016, published 2020)
